This note sets out measurements from patent US20210236412A1, “COSMETIC COMPOSITION OF NON-AQUEOUS THIXOTROPIC NAIL VARNISH CONTAINING A NAIL-HARDENING AGENT, USE AND IMPLEMENTATION METHOD” (FIABILA, priority 2018, published 2021).

Each structure is given as a SMILES string.

The nature of series [1]: Viscosity, Brookfield viscometer. The class given is physicochemical. Conditions: concentrations of less than 1% by weight. The procedure: (§1) Various cosmetic compositions in the form of nail varnish of the organic-solvent-based varnish type were prepared and applied to nails. The tests hereinafter were performed on these varnishes: • Gloss: 100 μm of varnish was applied to a Leneta-type panel. After drying, the gloss was measured at an angle of incidence of 60° using a Minolta 268 glossmeter. • Flexibility: An aluminum plate covered with a varnish of 300 μm wet is subjected to a slow stamping and the depth of the penetration is measured (ISO1520). • Varnish hardness: It was measured using a Persoz pendulum on a glass plate covered with a varnish with a thickness of 100 μm wet, after drying at room temperature, according to the ISO1522 standard. • Adhesion: A “cross hatch test” is carried out on a glass plate. A score of 0 corresponds to an absence of loss of adhesion. A score of 5 corresponds to a total loss of adhesion. • Solids content: Between 0.5 and 1 g of varnish is poured into a dish. […] The stability of this shade, and more specifically the appearance or not of any syneresis, is observed. • Odor: The odor of the varnish is compared to that of a varnish not containing any hardening agent. • Viscosity: The viscosity of the product is measured at 25° C. using a Brookfield viscometer. […]

In another series the test system is nails of the hand. Kind of series: In vivo test of nail hardening on panels of 30 persons. More on the design: species or system human. Conditions: 0.05% by weight in the varnish composition, three weeks. An excerpt:
The varnish was applied under normal conditions of use (namely one application every three days, after having removed the previous varnish). Comparative composition 5 contained 0.05% of hexane, comparative composition 6 contained 0.05% by weight of citral, comparative composition 9 contained 0.05% by weight of caproic acid and composition 7 according to the present invention contained 0.05% by weight of sorbic acid. […] The respective compositions and also the results of the physical tests and observed by the panelists are collated in table 2 hereinafter.

Series [2] is classed as physicochemical. The procedure: as §1
The nature of series [3]: Sedimentation stability and color fastness of tinted varnish. Type of series: physicochemical. The note with it: 0.1% by weight in the varnish; one month at 45° C.
Protocol: Various cosmetic compositions in the form of nail varnish of the organic-solvent-based varnish type were prepared and applied to nails. […] The color of the varnish is then compared to a reference varnish not containing any hardening agent. • Sedimentation stability: A tinted varnish composition containing pearlescent agent and a coloring solution is prepared and is placed in an oven for 1 month at 45° C. A visual observation is made to check whether the pearlescent agent has or has not sedimented out. • Shade stability: A tinted varnish containing a mixture of the following pigments: titanium dioxide, Red 34 and ferric ferrocyanide blue, is placed in an oven at 45° C. for 30 days.
firstly, a pearlescent agent: titanium oxide-coated mica sold under the name Flamenco Gold, 6-48 μm, by BASF,
and, secondly, Pigment Red 34: organic pigment sold by Sun Chemical.
This pigment was ground in order to be able to be incorporated. The grinding procedure included mixing the solvents with the pigment, stirring to deagglomerate the pigment, then incorporating the nitrocellulose. Once the latter had dissolved, the plasticizer was incorporated with stirring, which was continued for 20 minutes. […]
Titanium oxide-coated mica (Flamenco Gold, 6-48 μm, from BASF) 2% by weight The stability of the compositions thus prepared was evaluated by visual observation after storage for one month at 45° C.

For `C/C=C/C=C/C(=O)O` [sorbic acid], the “influence on the viscosity of the varnish composition” value in series [1] is on record as “does not have any influence”. In addition, in the series on nails of the hand, the “subjects who found an overall improvement in the quality and the hardness of their nails” value is listed as “more than 83%”. In series [2], the “influence on the stability of the varnish composition” value is listed as “does not have any influence” and the “maximum amount that can be incorporated into the varnish without causing yellowing” value is recorded as “less than 1 % by weight”.

For `O=P(O)(O)O` [Phosphoric acid], the “discoloration of the shade” value in series [3] is “discolors the Pigment Red 34”.
